The values that follow come from ChEMBL document CHEMBL4229471, “Antiprotozoal and cysteine proteases inhibitory activity of dipeptidyl enoates” (Bioorg Med Chem, 2018).

Data set [1] addresses T1, Procathepsin L (Homo sapiens, UniProt P07711). Nature of the data set: Inhibition of human cathepsin L using Cbz-Phe-Arg-AMC as substrate.
Target sequence in this assay (P07711 whole entry): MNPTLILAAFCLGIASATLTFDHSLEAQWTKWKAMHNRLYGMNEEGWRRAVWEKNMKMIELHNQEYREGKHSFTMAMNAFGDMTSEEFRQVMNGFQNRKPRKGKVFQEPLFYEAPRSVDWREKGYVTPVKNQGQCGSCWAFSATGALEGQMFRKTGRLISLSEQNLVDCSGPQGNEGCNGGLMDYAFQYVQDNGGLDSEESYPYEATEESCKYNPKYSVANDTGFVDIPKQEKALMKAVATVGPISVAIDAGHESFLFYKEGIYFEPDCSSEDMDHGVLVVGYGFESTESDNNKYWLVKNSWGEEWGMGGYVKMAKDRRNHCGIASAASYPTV
For data set [2], the target named is Rhodesain (Trypanosoma brucei rhodesiense) (UniProt Q95PM0). The data set can be described thus: Irreversible inhibition of Trypanosoma brucei rhodesiense rhodesain using Cbz-Phe-Arg-AMC as substrate pretreated for 30 mins followed by substrate addition and measured for 30 mins by dialysis method.
The target of data set [3] is Cruzipain (Trypanosoma cruzi) (UniProt P25779). Nature of the data set: Irreversible inhibition of Trypanosoma cruzi cruzain pretreated for 30 mins followed by substrate addition and measured for 30 mins by dialysis method.
In data set [4] the target is T1, Procathepsin L. Nature of the data set: Inhibition of human cathepsin L at 20 uM using Cbz-Phe-Arg-AMC as substrate relative to control.
Target sequence in this assay (P07711 114-333 limits assumed): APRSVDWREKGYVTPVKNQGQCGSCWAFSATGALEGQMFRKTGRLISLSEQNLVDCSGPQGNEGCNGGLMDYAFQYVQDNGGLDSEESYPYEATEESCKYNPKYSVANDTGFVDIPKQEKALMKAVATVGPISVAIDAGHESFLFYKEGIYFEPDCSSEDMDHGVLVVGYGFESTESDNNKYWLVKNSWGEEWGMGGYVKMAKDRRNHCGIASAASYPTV
For data set [5], the target named is T2, Cathepsin B (Homo sapiens, UniProt P07858). The data set can be described thus: Inhibition of human cathepsin B at 20 uM using Cbz-Phe-Arg-AMC as substrate relative to control.
Data set [6] deals with Rhodesain (Trypanosoma brucei rhodesiense) (UniProt Q95PM0). Nature of the data set: Inhibition of Trypanosoma brucei rhodesiense rhodesain assessed as second-order rate constant using Cbz-Phe-Arg-AMC as substrate measured for 30 mins by fluorescence method.
The target in a further data set is Rhodesain (Trypanosoma brucei rhodesiense, UniProt Q95PM0). The data set can be described thus: Inhibition of Trypanosoma brucei rhodesiense rhodesain using Cbz-Phe-Arg-AMC as substrate measured for 30 mins by fluorescence method.
In a further data set the target is Cruzipain (Trypanosoma cruzi, UniProt P25779). The data set can be described thus: Inhibition of Trypanosoma cruzi cruzain.
For data set [7], the target named is Rhodesain (Trypanosoma brucei rhodesiense) (UniProt Q95PM0). The data set can be described thus: Inhibition of Trypanosoma brucei rhodesiense rhodesain at 20 uM using Cbz-Phe-Arg-AMC as substrate measured for 30 mins by fluorescence method relative to control.
The target in data set [8] is Cruzipain (Trypanosoma cruzi) (UniProt P25779). Nature of the data set: Inhibition of Trypanosoma cruzi cruzain assessed as second-order rate constant.
In data set [9] the target is T2, Cathepsin B. Nature of the data set: Inhibition of human cathepsin B using Cbz-Phe-Arg-AMC as substrate.
Data set [10] concerns the target T3, Falcipain 2 (Plasmodium falciparum) (UniProt Q9N6S8).
T3 sequence (whole entry): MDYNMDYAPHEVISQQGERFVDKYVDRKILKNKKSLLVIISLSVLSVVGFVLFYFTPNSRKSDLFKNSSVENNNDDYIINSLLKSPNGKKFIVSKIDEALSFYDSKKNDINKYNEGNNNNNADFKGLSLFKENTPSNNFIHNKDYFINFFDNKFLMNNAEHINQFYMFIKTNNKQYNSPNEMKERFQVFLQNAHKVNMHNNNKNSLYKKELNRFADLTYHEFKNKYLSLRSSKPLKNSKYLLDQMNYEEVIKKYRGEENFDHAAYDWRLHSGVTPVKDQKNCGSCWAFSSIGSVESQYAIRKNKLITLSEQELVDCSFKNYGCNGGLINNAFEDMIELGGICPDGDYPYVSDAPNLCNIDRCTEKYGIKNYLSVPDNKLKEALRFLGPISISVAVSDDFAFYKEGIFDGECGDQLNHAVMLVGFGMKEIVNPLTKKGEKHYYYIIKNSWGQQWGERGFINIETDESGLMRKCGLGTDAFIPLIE
The data set can be described thus: Irreversible inhibition of Plasmodium falciparum falcipain-2 using Cbz-Phe-Arg-AMC as substrate pretreated for 30 mins followed by substrate addition and measured for 30 mins by dialysis method.

The target in data set [11] is T2, Cathepsin B. The data set can be described thus: Inhibition of human cathepsin B assessed as second order rate constant using Cbz-Phe-Arg-AMC as substrate.
The target in data set [12] is Cruzipain (Trypanosoma cruzi) (UniProt P25779). The data set can be described thus: Inhibition of Trypanosoma cruzi cruzain at 20 uM relative to control.
The next data set relates to Trypanosoma cruzi. Nature of the data set: Antitrypanosomal activity against Trypanosoma cruzi Tulahuen strain C2C4 amastigote forms harboring LacZ infected in rat L6 cells after 96 hrs by CPRG/Nonidet reagent based photometric method. It is filed as functional, organism-based. Conditions: Tulahuen strain C2C4, L6, 96 h.
A short description of data set [13]: Cytotoxicity against human HepG2 cells assessed as cell viability at 1 uM measured after 24 hrs by spectrophotometric method relative to control. It is filed as cell-based. Conditions: read-out: Activity.
Data set [14] deals with T1, Procathepsin L. The data set can be described thus: Inhibition of human cathepsin L assessed as second order rate constant using Cbz-Phe-Arg-AMC as substrate.
Target sequence in this assay (P07711 114-333 limits assumed): as the sequence (P07711 114-333 limits assumed) above
In a further data set the test system is Plasmodium falciparum. The data set can be described thus: Antimalarial activity against erythrocytic stage of synchronized Plasmodium falciparum Dd2 after 48 hrs by Picogreen dye based fluorescence assay. It counts as functional, organism-based. Conditions: Dd2, 48 h.
Data set [15] has as its target T3, Falcipain 2 (Plasmodium falciparum). The data set can be described thus: Inhibition of Plasmodium falciparum falcipain-2 at 20 uM using Cbz-Phe-Arg-AMC as substrate measured for 15 mins by spectrofluorimetric method relative to control.
Another data set concerns the target T4, Falcipain 2 (Plasmodium falciparum, UniProt Q9N6S8).
T4 sequence (Q9N6S8 whole entry): T3 sequence (whole entry)
The data set can be described thus: Inhibition of Plasmodium falciparum falcipain-2 using Cbz-Phe-Arg-AMC as substrate measured for 15 mins by spectrofluorimetric method.

The target of data set [16] is T3, Falcipain 2 (Plasmodium falciparum). Nature of the data set: Inhibition of Plasmodium falciparum falcipain-2 assessed as second-order rate constant using Cbz-Phe-Arg-AMC as substrate measured for 15 mins by spectrofluorimetric method.
A further data set concerns Leishmania donovani. The data set can be described thus: Antileishmanial activity against Leishmania donovani MHOM/ET/67/L82 axenic amastigotes after 70 hrs by alamar blue staining based fluorescence assay. It is filed as functional, organism-based. Conditions: MHOM/ET/67/L82, 70 h. On the technique in general: The colour change of resazurin is a common sign of viable cells or microbes.

For data set [17], the system named is Trypanosoma brucei rhodesiense. The data set can be described thus: Antiprotozoal activity against patient derived Trypanosoma brucei rhodesiense STIB 900 bloodstream form after 70 hrs by Alamar Blue assay. It is filed as functional, organism-based. The following applies: STIB 900, 70 h.
Data set [18] has as its target Cruzipain (Trypanosoma cruzi) (UniProt P25779). Nature of the data set: Reversible inhibition of Trypanosoma cruzi cruzain pretreated for 30 mins followed by substrate addition and measured for 30 mins by dialysis method.
Data set [19] has as its target T3, Falcipain 2 (Plasmodium falciparum). The data set can be described thus: Reversible inhibition of Plasmodium falciparum falcipain-2 using Cbz-Phe-Arg-AMC as substrate pretreated for 30 mins followed by substrate addition and measured for 30 mins by dialysis method.
The target in data set [20] is Rhodesain (Trypanosoma brucei rhodesiense) (UniProt Q95PM0). Nature of the data set: Reversible inhibition of Trypanosoma brucei rhodesiense rhodesain using Cbz-Phe-Arg-AMC as substrate pretreated for 30 mins followed by substrate addition and measured for 30 mins by dialysis method.

pIC50, pKi: −log10 of the molar value. Active and inactive are the calls of the source. The rule behind the calls is not given here.

Chain of Rhodesain (Trypanosoma brucei rhodesiense) (Q95PM0 1-450): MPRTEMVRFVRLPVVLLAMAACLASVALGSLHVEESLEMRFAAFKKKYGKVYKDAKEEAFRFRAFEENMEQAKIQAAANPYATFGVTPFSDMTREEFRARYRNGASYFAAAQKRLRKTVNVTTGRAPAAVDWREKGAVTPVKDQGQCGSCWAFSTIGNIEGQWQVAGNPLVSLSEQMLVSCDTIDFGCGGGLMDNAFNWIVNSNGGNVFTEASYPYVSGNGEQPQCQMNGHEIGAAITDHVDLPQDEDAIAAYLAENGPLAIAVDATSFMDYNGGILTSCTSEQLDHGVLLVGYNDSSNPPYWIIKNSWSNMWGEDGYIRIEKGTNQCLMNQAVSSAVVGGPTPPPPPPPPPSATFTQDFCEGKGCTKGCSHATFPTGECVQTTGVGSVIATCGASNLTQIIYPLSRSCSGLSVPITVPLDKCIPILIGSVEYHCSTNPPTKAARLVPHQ
Chain of Rhodesain (Q95PM0 whole entry): as the sequence (Q95PM0 1-450) above
Chain of Cruzipain (Trypanosoma cruzi) (P25779 123-467 limits assumed): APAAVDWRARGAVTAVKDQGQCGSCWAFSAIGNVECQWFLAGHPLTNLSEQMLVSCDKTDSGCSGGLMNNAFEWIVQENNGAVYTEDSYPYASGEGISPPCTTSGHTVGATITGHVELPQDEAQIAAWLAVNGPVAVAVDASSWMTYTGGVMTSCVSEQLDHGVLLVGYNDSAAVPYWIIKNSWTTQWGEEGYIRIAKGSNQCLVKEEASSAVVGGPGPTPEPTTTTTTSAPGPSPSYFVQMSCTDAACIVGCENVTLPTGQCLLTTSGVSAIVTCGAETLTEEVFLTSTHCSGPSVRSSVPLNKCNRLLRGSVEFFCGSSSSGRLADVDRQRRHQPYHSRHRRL
Chain of Cruzipain (P25779 whole entry): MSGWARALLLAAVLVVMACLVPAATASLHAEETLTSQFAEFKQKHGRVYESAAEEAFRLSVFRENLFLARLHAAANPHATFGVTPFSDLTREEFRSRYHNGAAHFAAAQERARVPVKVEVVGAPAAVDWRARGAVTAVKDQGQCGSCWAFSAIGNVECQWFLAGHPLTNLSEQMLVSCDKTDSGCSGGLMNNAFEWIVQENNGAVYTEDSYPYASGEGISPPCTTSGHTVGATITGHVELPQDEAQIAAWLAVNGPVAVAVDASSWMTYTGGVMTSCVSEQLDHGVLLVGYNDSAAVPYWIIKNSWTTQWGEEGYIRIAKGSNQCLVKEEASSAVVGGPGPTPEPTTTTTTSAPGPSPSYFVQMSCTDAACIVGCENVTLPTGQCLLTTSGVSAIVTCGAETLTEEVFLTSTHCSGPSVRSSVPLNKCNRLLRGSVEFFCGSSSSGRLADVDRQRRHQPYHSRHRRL

Take `CCOC(=O)/C=C/C(=O)[C@@H](CCc1ccccc1)NC(=O)[C@H](Cc1ccccc1)NC(=O)N1CCOCC1`: the pIC50 (as a rule, the negative decadic logarithm of the IC50, by convention in mol/L) against Procathepsin L [1] was under 5.70; on Rhodesain, 6.82; on Cruzipain it was 6.48; on Cathepsin B [9], 7.10. Also, the inhibition result in data set [2], in data set [3] and in data set [10] was “Active” each time. For the same compound, the inhibition – broadly, how much of the control response was suppressed – was determined as 100% against Procathepsin L [4], 99% on Cathepsin B [5], 99% in data set [7] and 99% in data set [12]. The K in data set [6] worked out at 62400 M⁻¹ s⁻¹; in data set [8], 22000 M⁻¹ s⁻¹; on Cathepsin B [11] it was 108000 M⁻¹ s⁻¹.

As to `O=C(Cn1ccnc1[N+](=O)[O-])NCc1ccccc1` [BENZNIDAZOLE], the IC50 (in general, the concentration that gives 50% inhibition) in the data set on Trypanosoma cruzi stood at 0.5 µg/mL.

Consider `CCOC(=O)/C=C/C(=O)[C@H](CCc1ccccc1)NC(=O)[C@H](Cc1ccccc1)NC(=O)N1CCOCC1`, for which the negative-log IC50 (pIC50) against Procathepsin L [1] was 6.74; at Rhodesain, 6.82; on Cruzipain, 6.52; on Cathepsin B [9] it was 7.15; in the data set with Plasmodium falciparum, 5.17. Further, the inhibition entry in [2], in [3] and in [10] was “Active” in each case. The inhibition (against Procathepsin L [4]; against Cathepsin B [5]; in [7]; in data set [12]) was 100% each time. For the same compound, the K came out at 142000 M⁻¹ s⁻¹ in data set [6], 28500 M⁻¹ s⁻¹ on Procathepsin L [14], 23400 M⁻¹ s⁻¹ in [8] and 97000 M⁻¹ s⁻¹ on Cathepsin B [11]. Besides, in data set [13], the viability at 24 h, 1 µM turned out to be 100%.

`CCOC(=O)/C=C/C(=O)[C@H](CCc1ccccc1)NC(=O)[C@H](CC(C)C)NC(=O)OCc1ccccc1`: the negative logarithm of the IC50 (pIC50) at Procathepsin L [1] is 6.59; in the data set on Trypanosoma cruzi it was 5.15; on Cruzipain, 7.10; on Falcipain 2, 6.24; in the data set on Leishmania donovani, 7.05; in data set [17], 5.63. Besides, in the data set on Plasmodium falciparum, the pIC50 is 5.79. The inhibition on Procathepsin L [4] is 100%; against Cathepsin B [5], 100%; in [15], 98%; in [7], 98%; in [12], 100%. Besides, the K in data set [6] was 116000 M⁻¹ s⁻¹; at Procathepsin L [14] it was 29900 M⁻¹ s⁻¹; in data set [8] it was 60800 M⁻¹ s⁻¹; in [16] it was 6000 M⁻¹ s⁻¹; on Cathepsin B [11], 42400 M⁻¹ s⁻¹. Besides, in data set [13], the viability at 24 h, 1 µM was found to be 100%.

On to `CCOC(=O)/C=C/C(=O)[C@H](CCc1ccccc1)NC(=O)[C@H](Cc1ccccc1)NC(=O)OCc1ccccc1`, for which the pIC50 was 4.70 with Trypanosoma cruzi; 7.52 on Rhodesain; 7.22 against Falcipain 2; 4.90 in the data set on Leishmania donovani; 6.03 in data set [17]; 4.79 in the data set with Plasmodium falciparum. The inhibition against Procathepsin L [4] came out at 100%; on Cathepsin B [5] it was 100%; in data set [15], 100%; in data set [7], 100%; in data set [12], 99%. The K in data set [6] was 1.27e+06 M⁻¹ s⁻¹; on Procathepsin L [14], 45300 M⁻¹ s⁻¹; in data set [16], 17100 M⁻¹ s⁻¹; at Cathepsin B [11], 45500 M⁻¹ s⁻¹. The viability at 24 h, 1 µM in data set [13] was 100%.

`CCOC(=O)/C=C/C=C/C(=O)[C@H](CCc1ccccc1)NC(=O)[C@H](Cc1ccccc1)NC(=O)N1CCOCC1`: the pIC50 was 5.83 at Procathepsin L [1], 6.25 on Rhodesain, under 5.70 against Cruzipain and 5.65 at Cathepsin B [9]. Further, the pKi (in general, the Ki on a negative log10 scale, so that one unit is a factor of ten) on Procathepsin L [1] was 3.11; on Cathepsin B [9] it was 5.85. The inhibition entry in data set [2], in data set [3], in data set [18], in data set [19], in data set [20] and in data set [10] was “Active” in each case. Besides, the inhibition was found to be 99% at Procathepsin L [4], 90% on Cathepsin B [5] and 98% in data set [7]. Moreover, in [8], the K worked out at 0.56 M⁻¹ s⁻¹.
